In patent US6872722B2, “Therapies for tissue damage resulting from ischemia” (Pfizer Inc, priority 2001, dated 2005):

- melting point: > 220 °C
Structure (SMILES): O=c1ccc(S(=O)(=O)c2cccc(Br)c2)n[nH]1 [Example 4I, 6-(3-Bromo-benzenesulfonyl)-2H-pyridazin-3-one]
